Experimental data reported in patent publication US20040091853A1 (priority 2003, published 2004).
Like-named read-outs stand apart in the source and are kept apart here.

Columns and labels:
[1] = system: pNL4-3-derived HIV reporter particles; format: cell-based
[2] = system: VSV-G-enveloped particles; format: cell-based, HIV
[3] = system: pNL4-3-derived HIV reporter particles; format: cell-based; settings: particles made in presence of 1 μM inhibitor; supernatants tested on target cells

| Compound | blocking of transfer of β-lactamase to target cells [1] | blocking of transfer of β-lactamase to target cells [2] | blocking of transfer of β-lactamase [1] | percentage of blue cells [1] | blue cells in presence versus absence of NH4Cl [2] | percentage of blue cells [2] | effect on ability of HIV reporter particle to transfer β-lactamase to target cells [1] | percentage of blue cells [3] |
| --- | --- | --- | --- | --- | --- | --- | --- | --- |
| enfuvirtide | blocked the transfer of β-lactamase to target cells | neither agent blocked transfer of β-lactamase |  |  |  |  |  |  |
| Cl.N [NH4Cl] |  |  | did not block transfer of β-lactamase | ˜10% blue cells | significantly fewer blue cells | ˜10% blue cells |  |  |
| CCc1cc(NCc2nc3c(Cl)ccc(Cl)c3o2)c(O)nc1C [L-697661] |  |  |  | 10-20% blue cells |  |  | had no effect | ˜10-20% blue cells |
